From US11141389B2, “Agents that inhibit NGLY1 and methods of use thereof” (The Board of Trustees of the Leland Stanford Junior …, priority 2017, dated 2021)
Where two headings read alike, the source gives them in different places. Residues, ends and D or L forms follow the SMILES beside them. *: point of attachment. Cbz = O=C(OCc1ccccc1)*; CH2F = FC*

Columns and labels:
NGly1 [1] = biological target: T1, NGly1 (Homo sapiens, UniProt Q96IV0); assay: Gel shift of RNAse B exposed to recombinant Ngly1; type: biochemical; conditions: gel electrophoresis, in the presence of the compound
T1 sequence (Q96IV0 1-654): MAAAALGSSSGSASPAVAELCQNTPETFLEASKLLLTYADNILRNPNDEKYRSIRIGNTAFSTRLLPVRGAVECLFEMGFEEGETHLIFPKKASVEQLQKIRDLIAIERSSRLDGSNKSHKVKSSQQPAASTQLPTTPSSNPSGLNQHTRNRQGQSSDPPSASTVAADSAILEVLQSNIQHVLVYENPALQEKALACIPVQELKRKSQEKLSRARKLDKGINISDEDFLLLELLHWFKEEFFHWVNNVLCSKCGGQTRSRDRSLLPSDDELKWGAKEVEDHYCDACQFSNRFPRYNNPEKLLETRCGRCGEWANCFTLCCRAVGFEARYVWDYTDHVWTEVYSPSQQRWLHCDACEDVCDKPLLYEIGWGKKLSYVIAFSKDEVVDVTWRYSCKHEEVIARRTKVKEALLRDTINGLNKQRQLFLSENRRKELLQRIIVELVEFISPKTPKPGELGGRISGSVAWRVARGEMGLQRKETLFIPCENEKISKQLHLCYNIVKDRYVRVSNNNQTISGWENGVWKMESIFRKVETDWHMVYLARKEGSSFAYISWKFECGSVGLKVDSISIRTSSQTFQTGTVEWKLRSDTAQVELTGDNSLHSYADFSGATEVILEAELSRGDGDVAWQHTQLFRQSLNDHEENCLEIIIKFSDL
Description: To detect direct inhibition of NGly1 by WRR139, the mass shift of RNAse B exposed to recombinant Ngly1 was observed by gel electrophoresis. In the presence of Ngly1, RNAse B was fully converted from its glycosylated band at pXXX to a deglycosylated protein at pXXX (FIG. 4D).

caspases 3/7 = assay: Caspase 3/7 inhibition assay (Caspase-Glo, staurosporine-induced U266 cells); type: cell-based; conditions: staurosporine 1 μM, 8 hours
Description: We were further interested to see whether this molecule would also hit caspases, similar to the known Ngly1 inhibitor Z-VAD-fmk. […] Inhibition of caspases 3/7 was not observed until a concentration of about 10 μM was reached. In addition, the relative activity was not lowered below the range observed by induced apoptosis
Caspase 3/7 inhibition assay. 1 million U266 cells were suspended in 10 mL RPMI 15% BSA+PS, and plated into a flat-bottom, white-walled 96-well plate (100 μL per well). The plate was incubated at 37° C. overnight. The following day, cells were treated with staurosporine (apoptosis inducer, final concentration 1 μM), WRR139 or Z-VAD-fmk (at final concentrations shown) or DMSO to a final concentration of 2% DMSO (v/v) respectively. The plate was incubated for 8 hours at 37° C. Caspase-Glo kit reagent (company details) was prepared as per instruction from the manufacturer and after equilibration to 23° C. […] of the reagent was added to each well. […] Caspase inhibition was calculated by subtracting background (signal from media containing no cells) and comparison to signal from cells with induced apoptosis (staurosporine only).

NGly1 [2] = biological target: T1, NGly1; assay: Cresswell assay (ddVenus fluorescence on deglycosylation by NGly1) in stably transfected K562 cells; type: cell-based; parameters: endogenous in cells; host or cells: K562 cells stably transfected with the ddVenus reporter; conditions: for IC50: K562 ddVenus cells, read-out: IC50 (reduction of fluorescence)
Description: The assay used was a modified version of the fluorimetric assay first described by the Cresswell lab in 2011. Prepared by the Steinmetz lab, a stably transfected K562 cell line was used. Mutated to misfold and contain a site for N-glycosylation, the expressed ddVenus would only properly fold, and thus fluoresce, upon deglycosylation by NGly1 and concurrent conversion of the glycosylated asparagine residue to aspartic acid (FIG. 4A). Thus inhibition of NGly1 would not activate fluorescence in this assay. With this method a library of about 600 cysteine-protease inhibitor-like compounds were screened. Six hits were found, all of which were peptide-derived structures with an electrophilic warhead consisting of either a vinyl sulfone or epoxyketone (FIG. 4B).
Screen of ˜600 compounds with the Cresswell Assay. Screens were performed clear, V-bottom 96-well plates. Plates were prepared with negative control 2 μL DMSO (A1) and positive control 1 μL DMSO+1 μL 10 mM Z-VAD-fmk (final conc. 100 uM Z-VAD-fmk; A12-H12). Wells A2-A11 contained 1 μL DMSO, the remaining wells contained 1 μL of 1 mM stocks of compounds from the library.
100 μL of suspended K562 ddVenus cells were added to the plate at 1×10^6 cells/mL. Wells A1-A12 contained cells in growth media. The remaining wells contained cells in growth media supplemented 100 uM carfilzomib.
The mean of fluorescence in FL1 was plotted for each well.
Z-factor for the assay ranged between 0.38-0.85.

Nrf1 [3] = assay: Immunoblot of Nrf1 processing in Nrf1 overexpressing HEK cells; type: cell-based, Human; conditions: compound before carfilzomib
Description: In a second attempt, we used Nrf1 overexpressing HEK cells and applied the small molecule Z-VAD-fmk (FIG. 1B) to inhibit NGly1 before treating the cells with carfilzomib. […] The higher abundance of the p120 band indicates the existence of the N-glycosylated form of Nrf1 as the main species in cells treated with Z-VAD-fmk. […] Thus, the incorrect processing of Nrf1 that we observed in cells treated with Z-VAD-fmk results from inhibition of NGly1 and not from caspase inhibition.
Nrf-3× Flag overexpressing HEK cells (RDB-2867; a kind gift from Senthil Radhakrishnan, Virginia Commonwealth University) were obtained by cloning Human Nrf1 coding region along with a C-terminal 3× Flag sequence into pcDNA3.1+ (Invitrogen, Carlsbad, Calif.). Cells were grown in Dulbecco's modified Eagle's medium (DMEM) supplemented with 10% fetal bovine serum (Clontech Laboratories), penicillin, and streptomycin (Fisher Scientific) at 37° C. in 5% CO2.
Immunoblot Analysis. Cells were lysed in RIPA buffer (50 mM Tris [pH 7.4], 150 mM NaCl, 1% NP40, 1% Na. Deoxycholate, 0.1% SDS, and 1 mM EDTA) supplemented with protease and phosphatase inhibitor cocktail (Pierce). For detecting Nrf1 a rabbit monoclonal antibody raised against the N terminus (D5B10, Cell Signaling) was used. Other immunoblots were performed with antibodies specific for Flag tag (Sigma-Aldrich) and β-actin (Cell Signaling).

Nrf1 [4] = assay: 3xPSMA4-ARE dual luciferase reporter assay in Nrf1 overexpressing HEK cells; type: cell-based, Human; conditions: compound prior to carfilzomib
Description: The same experiment was performed in Nrf1 overexpressing HEK cells in which NGly1 was inhibited by Z-VAD-fmk prior to incubation with carfilzomib. The caspase inhibitor QVD-OPh served as control to out rule that observed effect resulted from caspase inhibition.
(§1) Luciferase Assays. The construct 3xPSMA4-ARE-Luc (RDB-2415; a kind gift from Senthil Radhakrishnan, Virginia Commonwealth University) was described previously. Briefly, an oligo (5′-[…] […] […] […] […] […] […]-3′) (SEQ ID NO: 10) containing three copies of a putative ARE (shown in uppercase) derived from the first intron of the human PSMA4 gene was annealed to its corresponding reverse-complement oligo and cloned into pGL3-promoter vector (Promega). The promoter reporter was generated by inserting this construct upstream of a minimal SV40 promoter, driving the expression of a firefly luciferase.
Cells were transiently transfected with the firefly (promoter reporters) and renilla luciferase (pRL-TK; Promega) constructs along with effector plasmid as required. Cells were treated with compoubds or vehicle control for 12 hours. Afterwards cells were lysed in the luciferase assays were performed using the dual luciferase reporter assay system (E1910; Promega) according to the instructions from the manufacturer. The firefly luciferase activity was normalized to renilla luciferase activity for all experiments.

Nrf1 [5] = assay: Confocal imaging of Nrf1 localization in Nrf1 overexpressing HEK cells; type: cell-based, Human
Description: We further used confocal microscopy to visualize the localization of Nrf1 in MEFs and Nrf1 overexpressing HEK cells before and after treatment with carfilzomib (FIGS. 2B and C). In absence of carfilzomib Wt and NGly1^−/− MEFs show Nrf1 (in white) in low abundance and mainly in the cytosol (FIG. 2B). After treating the cells with carfilzomib for several hours, wt MEFs show Nrf1 in the nucleus whereas NGly1^−/− MEFs only show a higher abundance of Nrf1 in the cytosol. […] Untreated cells show Nrf1 mainly in the cytosol around the ER. […] Taking all the results in account we conclude that functioning NGly1 is required to activate Nrf1.
Immunofluorescence followed by confocal imaging. MEFs and Nrf-3× Flag overexpressing HEK cells were grown to 80% confluency on cover slips. Cells were treated with NGLy1-, caspase-, and proteasome inhibitors as indicated and allowed to recover in fresh media for one hour before cells were fixed using 100% ice cold methanol. Cells were treated with a primary rabbit monoclonal antibody raised against the N-terminus of Nrf1 (D5B10, Cell Signaling) and a secondary polyclonal Alexa Fluor0647 AffiniPure Fab Fragment Goat Anti-Rabbit IgG (H+L) (Jackson Immuno Research). […] Images were analyzed using Imaris analysis software (version). […]

[6] = tested on: multiple myeloma cell lines; assay: Potentiation of proteasome inhibition in multiple myeloma cell lines; type: cell-based
Description: Considering the effect of NGly1 KO or knockdown for proteasome inhibitor potentiation, we hoped to find the same effect through the use of a small molecule inhibitor of NGly1. Attempts to use Z-VAD-fmk to potentiate proteasome inhibition in multiple myeloma cell lines were unsuccessful, possibly due to its activity as a potent pan-caspase inhibitor.

[7] = patients; cited from earlier work
K562 cells = assay: Carfilzomib sensitivity of CRISPRi-knockdown K562 cell lines; type: cell-based
Description: Carfilzomib sensitivity of CRISPRi-knockdown k562 cell lines. Carfilzomib dissolved in DMSO at a concentration of 10 mM was used freshly or stored at −80° C. for no longer than a month without repeated freeze-thaw cycles. K562 cells were seeded at a density of 0.2 million cells/ml in 100 μl of RPMI medium in each well of a 96-well plate for 18 hours before treatment. The next day, serial-diluted Carfilzomib or DMSO was added to the cells with a final concentration of DMSO of 0.1% (v/v) in each well. After 48 hours of incubation at 37° C., the plate was retrieved and stained with a calcein-based LIVE/DEAD® Viability/Cytotoxicity Kit (Thermo Fisher Scientific), according to the manufacturer's instruction. The cells were then counted on an Accuri C6 flow cytometer (BD Biosciences, CA, USA). A total of 10,000 events was collected for each well. The viability was calculated as the percent of calcein-positive cells in each Carfilzomib-treated sample, normalized to that of the DMSO-treated vehicle control.

MEF cells = assay: Viability of MEF NGly1-/- versus MEF WT with carfilzomib (WST-1); type: cell-based, Mouse; conditions: 24 h incubation, doses 5-100 nM
Nrf1 [8] = assay: 3xPSMA4-ARE dual luciferase reporter assay in MEFs; type: cell-based, Mouse; conditions: 12 hour incubation
Description: According to the theory the active form (p110) of Nrf1 that translocates to the nucleus and activates proteasome genes, is produced upon removal of the N-glycans. Using a construct in which three copies of the antioxidant respond element (ARE) of the human PSMA4 gene were inserted upstream of a SV40 promoter that drives the expression of firefly luciferase in a dual luciferase reporter assay, where plasmids expressing renilla luciferase were used as internal transfection control, we compared the reporter activity in NGly1^−/− MEFs and Wt MEFs after treatment with carfilzomib.
as §1
Cells were transiently transfected with the firefly (promoter reporters) and renilla luciferase (pRL-TK; Promega) constructs along with effector plasmid as required. […]

Proteasome = conditions: blood and PBMCs, cited from earlier work

Description for H929 cells: Cell survival experiments using the Cell Titer-Glo 2.0 assay were performed in opaque white flat-bottomed 96-well plates. The cells (1.0-2.0×10^4 in 100 μL fresh media) were treated under the desired conditions and incubated for 24 or 48 h before addition of 100 μL assay reagent. Viability was calculated as percent signal compared to vehicle treated cells. Regression analysis and IC50 calculations were performed with GraphPad Prism 7.0.
U266 and H929: U266 or H929 cells were seeded at a density of 0.1 million cells/mL in RPMI medium (100 μL per well). The following day, carfilzomib, DMSO, or WRR139 were added in DMSO to final concentrations as shown for a maximum final concentration of 1% DMSO (v/v). After 48 h of incubation at 37° C. with 5% CO2, the plate was retrieved and treated with the Cell Titer-Glo 2.0 assay. After 10 minutes incubation the plate was analyzed by measuring the luminescence using a Spectra max®i3x (VWR, Australia) plate reader.

## Cc1ccc(S(=O)(=O)/C=C/C(=O)N[C@@H](CCc2ccccc2)C(=O)NCCC(C)C)cc1 [WRR139]
NGly1 [1]
  deglycosylation of RNAse B by recombinant Ngly1: only the original band remains, with no conversion to the deglycosylated form
Caspases 3/7
  concentration at which inhibition of caspases 3/7 is first observed: about 10 μM
U266 cells; U266, WRR139 plus carfilzomib vs carfilzomib alone
  increase in killing / reduction of LD50 of carfilzomib: 2.6 fold
U266 cells; U266, after 24 hours
  cell survival, co-inhibition with carfilzomib compared to carfilzomib alone: significantly decreased cell survival
H929 cells; H929, WRR139 plus carfilzomib vs carfilzomib alone
  increase in killing / reduction of LD50 of carfilzomib: 2 fold
H929 cells; H929, after 24 hours
  cell survival, co-inhibition with carfilzomib compared to carfilzomib alone: significantly decreased cell survival
NGly1 [2]; FIG. 4C
  NGly1 inhibition in validation of the hits: inhibit NGly1 in a dose-dependent manner
NGly1 [2]
  IC50: 5.5 µM

## COC(=O)C[C@H](NC(=O)[C@H](C)NC(=O)[C@@H](NC(=O)OCc1ccccc1)C(C)C)C(=O)CF [Z-VAD-fmk, carbobenzoxy-valyl-alanyl-aspartyl-[O-methyl]-fluoromethylketone] (Cbz-Val-Ala-Asp(OMe)-CH2F)
NGly1 [1]
  deglycosylation of RNAse B by recombinant Ngly1: only the original band remains, with no conversion to the deglycosylated form
Nrf1 [3]
  Nrf1 processing (p120/p110 bands): abnormal processing of Nrf1
Nrf1 [4]
  reporter activity: did not show an increased reporter activity
Nrf1 [5]; compound prior to incubation with carfilzomib
  localization of Nrf1: high abundance of Nrf1 in the cytosol
[6]
  potentiation of proteasome inhibition: unsuccessful
NGly1 [2]
  IC50: 4.4 µM

## CC(C)C[C@H](NC(=O)[C@H](Cc1ccccc1)NC(=O)c1cnccn1)B(O)O [bortezomib]
[7]
  incidence of neuropathy: 30-60%

## CC(C)C[C@H](NC(=O)[C@H](CCc1ccccc1)NC(=O)CN1CCOCC1)C(=O)N[C@@H](Cc1ccccc1)C(=O)N[C@@H](CC(C)C)C(=O)[C@@]1(C)CO1 [carfilzomib]
K562 cells; K562, dCAS9 knockdowns of Nrf1 or NGly1 (sgNrf1-A, sgNrf1-B, sgNGly1)
  LD50: 20 nM
K562 cells; K562, no sgRNA or control sgRNA
  LD50: 40 nM
MEF cells
  sensitivity of NGly1-/- cells relative to MEF WT: over 2 fold
Nrf1 [5]; carfilzomib alone
  localization of Nrf1: the majority of Nrf1 was observed in the nucleus
Nrf1 [8]; NGly1-/- MEFs
  reporter (PSM) activity: no response
Nrf1 [8]; Wt MEFs
  reporter (PSM) activity: increase in PSM activity
Proteasome; 15 mg/m^2, after the first dose
  inhibition of proteasome activity: > 75%
Proteasome; after five doses
  inhibition of proteasome activity: > 90%
